Results from patent US9676756B2 (PORTOLA PHARMACEUTICALS, INC., priority 2012, dated 2017).

Columns and labels:
Assay type in all cases: biochemical
JAK3 = target: T1, JAK3 (Homo sapiens, UniProt P52333); assay: JAK tyrosine phosphorylation activity, Z'-LYTE FRET kinase assay; conditions: catalytic domain recombinant kinase, Tyr6 peptide
T1 construct: 5 μl of catalytic domain recombinant Kinase enzyme+Tyr peptide substrate (Invitrogen, CA); purchased Invitrogen
Procedure: (§1) JAK and SYK tyrosine phosphorylation activity is measured using the Z'-LYTE™ Technology developed by Invitrogen Corporation (Carlsbad, Calif.). For JAK1, JAK2 and JAK3 the Z'-LYTE™ Kinase Assay Kit-Tyr6 Peptide (part number PV4122) was used. The Z'-LYTE™ biochemical assay employs a fluorescence resonance energy transfer (FRET) coupled-enzyme format and is based on the differential sensitivity of phosphorylated and non-phosphorylated peptides to proteolitic cleavage. The assay uses a synthetic peptide substrate that is labelled with a donor fluorophore (coumarin) and an acceptor fluorophore (fluorescein) that make up a FRET pair. In the primary reaction (the Kinase Reaction), the kinase transfers the γ-phosphate of ATP to a single tyrosine residue on the substrate, while the presence of a kinase inhibitor in the primary reaction suppresses phosphorylation. In the secondary reaction (the Development Reaction), a site-specific protease (the Development Reagent) is added. The development buffer quenches the Kinase Reaction, while the protease recognizes and cleaves non-phosphorylated Z'-LYTE™ peptide substrate. Cleavage disrupts FRET between the donor and acceptor fluorophores on the non-phosphorylated substrate, while uncleaved, phosphorylated substrate maintains FRET.
(§2) To test the ability of candidate molecules to inhibit JAK tyrosine phosphorylation activity, molecules are reconstituted in 100% DMSO and serially diluted 1:10 in polypropylene v-bottom microtiter plates. The candidate molecules are then diluted 1:25 into kinase buffer and 2.5 μl transferred into duplicate wells of a 384 well low volume black microtiter assay plate (Corning, USA). The final DMSO concentration in the assay is 1%. The kinase reaction contains 2.5 μl of a candidate molecule, 5 μl of catalytic domain recombinant Kinase enzyme+Tyr peptide substrate (Invitrogen, CA) and 2.5 μl ATP (Invitrogen, CA). The kinase reaction is allowed to precede for 1 hour at room temperature. The protease reaction is initiated by the addition of 5 μl Development Reagent (Invitrogen, CA). After 1 hour incubation at room temperature the fluorescence is measured using a FlexStation plate reader (Molecular Devices, Sunnyvale, Calif.). The reader settings used are as follows: Fluorescence mode, endpoint, top read, excitation 400 nm, emission 445 nm and 520 nm. Auto Cutoff 435 nm and 515 nm, PMT sensitivity high, 6 reads per well. Inhibition of JAK activity is calculated as the percent phosphorylation of substrate in the presence of inhibitor compared to the percent phosphorylation of substrate in the absence of inhibitor. IC50's were derived using Xlfit 4.3 (IDBS, UK), 4 parameter logistic model 205: Y=(A+((B−A)/(1+((C/x)^D)))).

JAK2 = target: T2, JAK2 (Homo sapiens, UniProt O60674); assay: as above; conditions: catalytic domain recombinant kinase, Tyr6 peptide
T2 construct: 5 μl of catalytic domain recombinant Kinase enzyme+Tyr peptide substrate (Invitrogen, CA); purchased Invitrogen
T2 sequence (O60674 849-1124 limits assumed): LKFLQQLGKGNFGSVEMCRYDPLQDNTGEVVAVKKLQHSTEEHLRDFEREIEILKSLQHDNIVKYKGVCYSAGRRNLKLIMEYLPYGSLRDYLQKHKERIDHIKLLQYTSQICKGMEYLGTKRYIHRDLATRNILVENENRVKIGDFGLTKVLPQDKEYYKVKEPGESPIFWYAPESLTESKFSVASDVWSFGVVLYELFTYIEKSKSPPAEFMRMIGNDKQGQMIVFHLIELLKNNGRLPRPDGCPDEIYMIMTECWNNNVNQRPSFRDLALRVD
Procedure: as §1, §2

JAK1 = target: T3, JAK1 (Homo sapiens, UniProt P23458); assay: as above; conditions: catalytic domain recombinant kinase, Tyr6 peptide
T3 construct: 5 μl of catalytic domain recombinant Kinase enzyme+Tyr peptide substrate (Invitrogen, CA); purchased Invitrogen
T3 sequence (P23458 875-1153 limits assumed): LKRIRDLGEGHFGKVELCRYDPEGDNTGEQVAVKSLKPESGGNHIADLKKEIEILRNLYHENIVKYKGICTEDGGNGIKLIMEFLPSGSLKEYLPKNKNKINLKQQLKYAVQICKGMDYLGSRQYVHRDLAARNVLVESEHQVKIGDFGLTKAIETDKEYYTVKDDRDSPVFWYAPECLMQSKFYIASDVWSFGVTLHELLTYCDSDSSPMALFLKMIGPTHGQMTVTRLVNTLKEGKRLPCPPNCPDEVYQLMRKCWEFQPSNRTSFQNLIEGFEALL
Procedure: as §1, §2

[1] = target: T4, full length active recombinant SYK enzyme (Homo sapiens, UniProt P43405); assay: SYK tyrosine phosphorylation activity, LANCE TR-FRET kinase assay; conditions: 1 nM SYK, 100 μM ATP, 1 hour at room temperature
T4 construct: full length active recombinant SYK enzyme (Millipore, CA); purchased Millipore
Procedure: Potency of candidate molecules for inhibiting Syk tyrosine phosphorylation activity is assessed by measuring the ability of a test compound to inhibit Syk-mediated tyrosine phosphorylation of a Syk-specific substrate.
SYK tyrosine phosphorylation activity is measured using the LANCE™ Technology developed by Perkin Elmer Life and Analytical Sciences (Boston, Mass.). LANCE™ refers to homogeneous time resolved fluorometry applications using techniques such as time-resolved fluorescence resonance energy transfer assay (TR-FRET) (see generally for procedures in Perkin Elmer Application Note—How to Optimize a Tyrosine Kinase Assay Using Time Resolved Fluorescence-Based LANCE Detection, wwww.perkinelmer.com/lifesciences). The assay principle involves detection of a phosphorylated substrate using energy transfer from a phosphospecific europium-labeled antibody to streptavidin-allophycocyanin as an acceptor.
To test the ability of candidate molecules to inhibit SYK tyrosine phosphorylation activity, molecules are reconstituted in 30% DMSO and serially diluted 1:3 with the final dilution containing DMSO in the absence of the candidate molecule. The final DMSO concentration in the assay is 3%. Kinase assays are performed as a two part reaction. The first reaction is a kinase reaction that comprises a candidate molecule, full length active recombinant SYK enzyme (Millipore, CA) and biotin-labeled SYK-specific substrate biotin-[…]-OH. The second reaction involves termination of the kinase reaction and the simultaneous addition of the detection reagents-europium-labeled anti-phosphotyrosine reagent (Eu-W1024-PY100, Perkin Elmer, Boston, Mass.) and Streptavidin-Allophycocyanin detection reagent (SA-APC, Prozyme, CA). The kinase reaction is performed in a black U-bottom 96-well microtitre plate. The final reaction volume is 50 μL and contains a final concentration of 1 nM active SYK enzyme, 550 nM SYK-substrate, and 100 μM ATP diluted in a buffer containing 50 mM Tris pH 7.5, 5 mM MgCl2, and 1 mM DTT. The reaction is allowed to proceed for 1 hour at room temperature. The stop buffer contains 100 mM Tris pH 7.5, 300 mM NaCl2, 20 mM EDTA, 0.02% Brij35, and 0.5% BSA. The detection reagents are added to the reaction mixture at the following dilutions—1:500 for Eu-W1024-PY100 and 1:250 for SA-APC. The kinase reaction is terminated by the addition of 50 μL stop buffer containing the detection reagents. The detection is allowed to proceed for 1 hr at room temperature. Detection of the phosphorolated substrate in the absence and presence of inhibitors is measured in the TR-FRET instrument, Analyst HT (Molecular Probes, Sunnyvale, Calif.) and the condition for measurements are set up using CriterionHost Release 2.0 (Molecular Probes, Sunnyvale, Calif.). The settings used are a follows: excitation 360 nm, emission 665-7.5 nm, beam splitter 350 nm 50/50, flash 100 pulses, delay 60 us, integration 400 us, z-height 2 mm. Inhibition of SYK-tyrosine kinase activity is calculated as the maximum response observed in the presence of inhibitor, compared to that in the absence of inhibitor. IC50s are derived by non-linear regression analysis.

T1 sequence (P52333 822-1111 limits assumed): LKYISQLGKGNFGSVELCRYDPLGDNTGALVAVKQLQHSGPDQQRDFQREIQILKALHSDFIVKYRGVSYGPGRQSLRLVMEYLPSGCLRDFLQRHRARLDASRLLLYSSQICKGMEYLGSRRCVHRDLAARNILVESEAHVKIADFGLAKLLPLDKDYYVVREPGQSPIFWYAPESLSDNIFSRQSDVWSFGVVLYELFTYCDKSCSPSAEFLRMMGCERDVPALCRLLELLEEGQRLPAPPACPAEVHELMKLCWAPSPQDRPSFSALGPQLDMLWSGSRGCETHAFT

Structure (SMILES) | JAK3 IC50 potency class (JAK3) | JAK2 IC50 potency class (JAK2) | JAK1 IC50 potency class (JAK1) | IC50 [1]
CCS(=O)(=O)N1CCC(c2ccc(Nc3ncc(C(N)=O)c(NC4CC4)n3)cc2)CC1 [Compound 1, 4-(cyclopropylamino)-2-((4-(1-(ethylsulfonyl)piperidin-4-yl)phenyl)amino)pyrimidine-5-carboxamide] | ++++ (0.01 uM<IC50<0.001 uM) | ++++ (0.01 uM<IC50<0.001 uM) | +++ (0.10 uM<IC50<0.01 uM) | +++ (0.10 uM<IC50<0.01 uM)
NC(=O)c1cnc(Nc2ccc(C3CCN(S(=O)(=O)C4CC4)CC3)cc2)nc1NC1CC1 [Compound 2, 4-(cyclopropylamino)-2-((4-(1-(cyclopropylsulfonyl)piperidin-4-yl)phenyl)amino)pyrimidine-5-carboxamide] | ++++ (0.01 uM<IC50<0.001 uM) | ++++ (0.01 uM<IC50<0.001 uM) | +++ (0.10 uM<IC50<0.01 uM) | +++ (0.10 uM<IC50<0.01 uM)
CC(C)S(=O)(=O)N1CCC(c2ccc(Nc3ncc(C(N)=O)c(NC4CC4)n3)cc2)CC1 [Compound 3, 4-(cyclopropylamino)-2-((4-(1-(isopropylsulfonyl)piperidin-4-yl)phenyl)amino)pyrimidine-5-carboxamide] | ++++ (0.01 uM<IC50<0.001 uM) | ++++ (0.01 uM<IC50<0.001 uM) | +++ (0.10 uM<IC50<0.01 uM) | +++ (0.10 uM<IC50<0.01 uM)
CC(C)N1CCC(c2ccc(Nc3ncc(C(N)=O)c(NC4CC4)n3)cc2)CC1 [Compound 4, 4-(cyclopropylamino)-2-((4-(1-isopropylpiperidin-4-yl)phenyl)amino)pyrimidine-5-carboxamide] | ++++ (0.01 uM<IC50<0.001 uM) | +++ (0.10 uM<IC50<0.01 uM) | +++ (0.10 uM<IC50<0.01 uM) | +++ (0.10 uM<IC50<0.01 uM)
CN(C)C(=O)N1CCC(c2ccc(Nc3ncc(C(N)=O)c(NC4CC4)n3)cc2)CC1 [Compound 5, 4-(cyclopropylamino)-2-((4-(1-(dimethylcarbamoyl)piperidin-4-yl)phenyl)amino)pyrimidine-5-carboxamide] | ++++ (0.01 uM<IC50<0.001 uM) | ++++ (0.01 uM<IC50<0.001 uM) | +++ (0.10 uM<IC50<0.01 uM) | +++ (0.10 uM<IC50<0.01 uM)
NC(=O)c1cnc(Nc2ccc(C3CCN(C(=O)N4CCOCC4)CC3)cc2)nc1NC1CC1 [Compound 6, 4-(cyclopropylamino)-2-((4-(1-(morpholine-4-carbonyl)piperidin-4-yl)phenyl)amino)pyrimidine-5-carboxamide] | ++++ (0.01 uM<IC50<0.001 uM) | ++++ (0.01 uM<IC50<0.001 uM) | +++ (0.10 uM<IC50<0.01 uM) | +++ (0.10 uM<IC50<0.01 uM)
CCC(=O)N1CCC(c2ccc(Nc3ncc(C(N)=O)c(NC4CC4)n3)cc2)CC1 [Compound 7, 4-(cyclopropylamino)-2-((4-(1-propionylpiperidin-4-yl)phenyl)amino)pyrimidine-5-carboxamide] | ++++ (0.01 uM<IC50<0.001 uM) | ++++ (0.01 uM<IC50<0.001 uM) | +++ (0.10 uM<IC50<0.01 uM) | +++ (0.10 uM<IC50<0.01 uM)
NC(=O)c1cnc(Nc2ccc(C3CCN(C4CCCC4)CC3)cc2)nc1NC1CC1 [Compound 8, 2-((4-(1-cyclopentylpiperidin-4-yl)phenyl)amino)-4-(cyclopropylamino)pyrimidine-5-carboxamide] | ++++ (0.01 uM<IC50<0.001 uM) | ++++ (0.01 uM<IC50<0.001 uM) | +++ (0.10 uM<IC50<0.01 uM) | +++ (0.10 uM<IC50<0.01 uM)
CN(C)C(=O)C1CN(c2ccc(Nc3ncc(C(N)=O)c(NC4CC4)n3)cc2)C1 [Compound 76, 4-(cyclopropylamino)-2-(4-(3-(dimethylcarbamoyl)azetidin-1-yl)phenylamino)pyrimidine-5-carboxamide] | – | – | – | ++ (1.0 uM<IC50<0.10 uM)
CN(C)C(=O)C1CN(c2ccc(Nc3ncc(C(N)=O)c(NC4CC4)n3)cc2F)C1 [Compound 77, 4-(cyclopropylamino)-2-(4-(3-(dimethylcarbamoyl)azetidin-1-yl)-3-fluorophenylamino)pyrimidine-5-carboxamide] | – | – | – | ++ (1.0 uM<IC50<0.10 uM)

More lines, now with the values ahead:

JAK3 IC50 potency class (JAK3) | JAK2 IC50 potency class (JAK2) | JAK1 IC50 potency class (JAK1) | IC50 [1] | Structure (SMILES)
– | – | – | +++ (0.10 uM<IC50<0.01 uM) | CC(=O)N1CC(c2ccc(Nc3ncc(C(N)=O)c(NC4CC4)n3)cc2)C1 [Compound 71, 2-(4-(1-acetylazetidin-3-yl)phenylamino)-4-(cyclopropylamino)pyrimidine-5-carboxamide]
– | – | – | +++ (0.10 uM<IC50<0.01 uM) | COCC(=O)N1CC(c2ccc(Nc3ncc(C(N)=O)c(NC4CC4)n3)cc2)C1 [Compound 72, 4-(cyclopropylamino)-2-(4-(1-(2-methoxyacetyl)azetidin-3-yl)phenylamino)pyrimidine-5-carboxamide]
– | – | – | +++ (0.10 uM<IC50<0.01 uM) | CS(=O)(=O)N1CC(c2ccc(Nc3ncc(C(N)=O)c(NC4CC4)n3)cc2)C1 [Compound 73, 4-(cyclopropylamino)-2-(4-(1-(methylsulfonyl)azetidin-3-yl)phenylamino)pyrimidine-5-carboxamide]
– | – | – | +++ (0.10 uM<IC50<0.01 uM) | CN(C)S(=O)(=O)N1CC(c2ccc(Nc3ncc(C(N)=O)c(NC4CC4)n3)cc2)C1 [Compound 74, 4-(cyclopropylamino)-2-(4-(1-(N,N-dimethylsulfamoyl)azetidin-3-yl)phenylamino)pyrimidine-5-carboxamide]
– | – | – | +++ (0.10 uM<IC50<0.01 uM) | CCS(=O)(=O)N1CC(c2ccc(Nc3ncc(C(N)=O)c(NC4CC4)n3)cc2)C1 [Compound 75, 4-(cyclopropylamino)-2-(4-(1-(ethylsulfonyl)azetidin-3-yl)phenylamino)pyrimidine-5-carboxamide]
